From USRE33897E, “Synthetic polypeptides and antibodies related to Epstein-Barr virus nuclear antigen” (Scripps Clinic and Research Foundation, priority 1989, dated 1992)
Residues, ends and D or L forms follow the SMILES beside them.

Tests used:
anti-EBNA antibodies = assay: ELISA with polypeptide as solid phase antigen, detecting anti-polypeptide antibodies in sera; assay type: binding, human; settings: for Reaction of VCA- sera with polypeptide: panel of 19 VCA- sera; for Reaction of sera of clinically normal VCA+ individuals with polypeptide: two serum dilutions; for Average titer of Progressive Systemic Schlerosis (PSS) patients to polypeptide compared with normals: high and low serum dilutions; for Number of 91 anti-EBNA positive (ACIF) sera positive against polypeptide: sera at 1:20 dilution
Method: A solution containing a substrate for the enzyme label such as hydrogen peroxide for peroxidase and a color-forming dye precursor such as o-phenylenediamine, or p-nitrophenyl phosphate for alkaline phosphatase is thereafter admixed with the solid phase.
Anti-peptide antibody binding and inhibition studies were carried out by an enzyme-linked immunosorbent assay (ELISA) as described below.
Briefly, microtiter wells (Costar, #3590, Cambridge, Mass.) were coated with individual polypeptides as antigens by adding 100 microliters (ul) of BBS [10 millimoler (mM) sodium borate (pH 8.3), 150 mM NaCl] containing polypeptide at a concentration of 10 micrograms per milliliter (ug/ml). Contact between the wells and antigen-containing solution was maintained for a predetermined time, typically 15 minutes, and at 20 degrees C., to form an antigen-coated solid phase. The solid and liquid phases were separated and the wells were washed three times with BBS.
Non-specific binding sites were blocked by admixing 200 microliters of 1% bovine serum albumin (BSA) in each well to form another solid-liquid phase admixture, and maintaining that solid-liquid phase admixture for 30 minutes, at 20 degrees C. The phases were separated and excess, unbound BSA was removed by washinq three times with BBS.
[…] Contact between the diluted sera and the antigen-coated solid phase was maintained for a predetermined time such as 1 hour, and at 20 degrees C., for an immunoreactant to form. The solid and liquid phases were separated, and the solid phase; i.e., antigen-coated, immunoreactant-containing wells, was then washed three times with BBS.
The antibodies in human sera that immunoreacted with an adsored polypeptide were detected using an indicating means comprising alkaline phosphatase-conjugated goat anti-human Ig antibody (Tago, Burlington, CA). The antibodies in rabbit sera that immunoreacted with an adsorbed polypeptide were detected using an indicating means comprising alkaline phosphatase-conjugated goat anti-rabbit Ig antibody (Kirkegard & Perry Laboratories, Inc., Gaithersburg, Md.). In either instance, 100 microliters of the indicating antibody diluted 1:300 in BBS were added per well to form a further solid-liquid phase composition. This solidliquid phase composition was maintained for a predetermined time, one hour, for the formation of a reaction product between the human antibodies bound to the solid phase and the indicating means, and at 20 degrees C.

[1] = Circular dichroism spectroscopy of polypeptides in phosphate buffered saline; assay type: physicochemical; settings: 1 mg/ml
Method: The conformational properties of the polypeptides were investigated to elucidate any secondary structure that might be necessary for polypeptide immunoreaction with human anti-EBNA antibodies. The polypeptides were dissolved at a concentration of 1 mg/ml in phosphate-buffered saline (PBS). Spectra were taken using 1 ml samples in a Cary 61 spectropolarimeter (Cary Instruments, Applied Physics Corp., Monrovia, Calif.) interfaced and automated with a Digital Equipment Corporation 11/02 computer (Digital Equipment Corporation, Maynard, Mass.).

Structure (SMILES): CC[C@H](C)[C@H](N)C(=O)N[C@@H](CCSC)C(=O)N[C@@H](CO)C(=O)N[C@@H](CC(=O)O)C(=O)N[C@@H](CCC(=O)O)C(=O)NCC(=O)N1CCC[C@H]1C(=O)NCC(=O)N[C@H](C(=O)NCC(=O)N[C@@H](CC(N)=O)C(=O)NCC(=O)N[C@@H](CC(C)C)C(=O)NCC(=O)N[C@@H](CCC(=O)O)C(=O)O)[C@@H](C)O [Polypeptide F12, H--Ile--Met--Ser--Asp--Glu--Gly--Pro--Gly--Thr--Gly--Asn--Gly--Leu--Gly--Glu--OH] (H-IMSDEGPGTGNGLGE-OH)
- Reaction of VCA- sera with polypeptide (anti-EBNA antibodies): None of the VCA- sera were found to react positively
- Reaction of sera of clinically normal VCA+ individuals with polypeptide (anti-EBNA antibodies): all of the VCA+ indiviuals were positive
- Conformation indicated by circular dichroism spectrum [1]: partial assumption of such conformation

Structure (SMILES): C[C@H](NC(=O)CNC(=O)CNC(=O)[C@H](C)NC(=O)CNC(=O)[C@H](C)NC(=O)CNC(=O)[C@H](C)NC(=O)CNC(=O)[C@@H](NC(=O)CNC(=O)CNC(=O)[C@H](Cc1c[nH]cn1)NC(=O)[C@@H](NC(=O)CNC(=O)[C@@H](N)CCCCN)[C@@H](C)O)[C@@H](C)O)C(=O)NCC(=O)N[C@@H](C)C(=O)NCC(=O)O [Polypeptide P27, H--Lys--Gly--Thr--His--Gly--Gly--Thr--Gly--Ala--Gly--Ala--Gly--Ala--Gly--Gly--Ala--Gly--Ala--Gly--OH] (H-KGTHGGTGAGAGAGGAGAG-OH)
- OD405 × 10^3 obtained with patient antibodies to polypeptide, average ± one standard deviation (anti-EBNA antibodies; VCA- Normals (n = 27), dilution 1:20): 67 ± 23 OD405 × 10^3
- Average titer of Progressive Systemic Schlerosis (PSS) patients to polypeptide compared with normals (anti-EBNA antibodies): relatively higher average titer
- Reaction of VCA- sera with polypeptide (anti-EBNA antibodies): None of the VCA- sera were found to react positively
- Number of 91 anti-EBNA positive (ACIF) sera positive against polypeptide (anti-EBNA antibodies): 91
- Antibodies binding to polypeptide before and after EBV-induced infectious mononucleosis (anti-EBNA antibodies; sera of two subjects): absent before infection, but appeared afterward
- OD405 × 10^3 obtained with patient antibodies to polypeptide (anti-EBNA antibodies; serum MV post-mononucleosis, dilution 1:20): 107 OD405 × 10^3
- OD405 × 10^3 obtained with patient antibodies to polypeptide (anti-EBNA antibodies; serum MV pre-mononucleosis, dilution 1:20): 15 OD405 × 10^3
- OD405 × 10^3 obtained with patient antibodies to polypeptide (anti-EBNA antibodies; serum SB post-mononucleosis, dilution 1:20): 33 OD405 × 10^3
- OD405 × 10^3 obtained with patient antibodies to polypeptide (anti-EBNA antibodies; serum SB pre-mononucleosis, dilution 1:20): 11 OD405 × 10^3
- OD405 × 10^3 obtained with patient antibodies to polypeptide (anti-EBNA antibodies; serum VCA + Normal 1, dilution 1:20): 155 OD405 × 10^3
- OD405 × 10^3 obtained with patient antibodies to polypeptide (anti-EBNA antibodies; serum VCA + Normal 2, dilution 1:20): 516 OD405 × 10^3
- Reaction of sera of clinically normal VCA+ individuals with polypeptide (anti-EBNA antibodies): all of the VCA+ indiviuals were positive
- Conformation indicated by circular dichroism spectrum [1]: very similar spectra

Structure (SMILES): C[C@H](NC(=O)CNC(=O)[C@@H]1CCCN1)C(=O)N1CCC[C@H]1C(=O)NCC(=O)NCC(=O)N[C@@H](CO)C(=O)NCC(=O)N[C@@H](CO)C(=O)NCC(=O)N1CCC[C@H]1C(=O)O [Polypeptide F13, H--Pro--Gly--Ala--Pro--Gly--Gly--Ser--Gly--Ser--Gly--Pro--OH] (H-PGAPGGSGSGP-OH)
- Reaction of VCA- sera with polypeptide (anti-EBNA antibodies): None of the VCA- sera were found to react positively
- Reaction of sera of clinically normal VCA+ individuals with polypeptide (anti-EBNA antibodies): all of the VCA+ indiviuals were positive
- Conformation indicated by circular dichroism spectrum [1]: random conformation

Structure (SMILES): C[C@H](NC(=O)CN)C(=O)NCC(=O)NCC(=O)N[C@@H](C)C(=O)NCC(=O)N[C@@H](C)C(=O)NCC(=O)NCC(=O)NCC(=O)N[C@@H](C)C(=O)NCC(=O)NCC(=O)N[C@@H](C)C(=O)NCC(=O)NCC(=O)O [Polypeptide F15, H--Gly--Ala--Gly--Gly--Ala--Gly--Ala--Gly--Gly--Gly--Ala--Gly--Gly--Ala--Gly--Gly--OH] (H-GAGGAGAGGGAGGAGG-OH)
- Average titer of Progressive Systemic Schlerosis (PSS) patients to polypeptide compared with normals (anti-EBNA antibodies): relatively higher average titer
- Reaction of VCA- sera with polypeptide (anti-EBNA antibodies): None of the VCA- sera were found to react positively
- Number of 91 anti-EBNA positive (ACIF) sera positive against polypeptide (anti-EBNA antibodies): 91
- Reaction of sera of clinically normal VCA+ individuals with polypeptide (anti-EBNA antibodies): all of the VCA+ indiviuals were positive
- Conformation indicated by circular dichroism spectrum [1]: very similar spectra

Structure (SMILES): C[C@H](NC(=O)CNC(=O)CNC(=O)[C@H](C)NC(=O)CNC(=O)[C@H](C)NC(=O)CNC(=O)CNC(=O)[C@H](C)NC(=O)CNC(=O)[C@H](C)NC(=O)CNC(=O)CNC(=O)[C@H](C)NC(=O)CNC(=O)[C@H](C)NC(=O)CNC(=O)CN)C(=O)NCC(=O)N[C@@H](C)C(=O)NCC(=O)O [Polypeptide F16, H--Gly--Gly--Ala--Gly--Ala--Gly--Gly--Ala--Gly--Ala--Gly--Gly--Ala--Gly--Ala--Gly--Gly--Ala--Gly--Ala--Gly--OH] (H-GGAGAGGAGAGGAGAGGAGAG-OH)
- Average titer of Progressive Systemic Schlerosis (PSS) patients to polypeptide compared with normals (anti-EBNA antibodies): relatively higher average titer
- Reaction of VCA- sera with polypeptide (anti-EBNA antibodies): None of the VCA- sera were found to react positively
- Number of 91 anti-EBNA positive (ACIF) sera positive against polypeptide (anti-EBNA antibodies): 91
- Reaction of sera of clinically normal VCA+ individuals with polypeptide (anti-EBNA antibodies): all of the VCA+ indiviuals were positive

Structure (SMILES): C[C@H](NC(=O)CNC(=O)CNC(=O)CNC(=O)[C@H](C)NC(=O)CNC(=O)[C@H](C)NC(=O)CNC(=O)CNC(=O)[C@H](C)NC(=O)CNC(=O)CNC(=O)[C@H](C)NC(=O)CNC(=O)CN)C(=O)NCC(=O)O [Polypeptide F14, H--Gly--Gly--Ala--Gly--Gly--Ala--Gly--Gly--Ala--Gly--Ala--Gly--Gly--Gly--Ala--Gly--OH] (H-GGAGGAGGAGAGGGAG-OH)
- Average titer of Progressive Systemic Schlerosis (PSS) patients to polypeptide compared with normals (anti-EBNA antibodies): relatively higher average titer
- Reaction of VCA- sera with polypeptide (anti-EBNA antibodies): None of the VCA- sera were found to react positively
- Number of 91 anti-EBNA positive (ACIF) sera positive against polypeptide (anti-EBNA antibodies): 91
- Reaction of sera of clinically normal VCA+ individuals with polypeptide (anti-EBNA antibodies): all of the VCA+ indiviuals were positive
- Conformation indicated by circular dichroism spectrum [1]: very similar spectra
